Tests used:
[1] = The drug is tested on WLS-310 corresponding to human gut metagenome with ENA study accession number: PRJEB37062 and ENA sample accession number: ERS12561785 for biotransformation under anaerobic condition. The drug concentrations were measured over 9 timepoints collected between 0 and 24 hours of incubation by liquid-chromatography-coupled mass spectrometry (LC–MS); settings: 2 µM
[2] = human gut metagenome, 24 h, 2 µM
[3] = The drug is tested on Z-029 corresponding to rat gut metagenome with ENA study accession number: PRJEB37062 and ENA sample accession number: ERS12561828 for biotransformation under anaerobic condition. The drug concentrations were measured over 9 timepoints collected between 0 and 24 hours of incubation by liquid-chromatography-coupled mass spectrometry (LC–MS); settings: 2 µM
[4] = The drug is tested on Z-007 corresponding to rat gut metagenome with ENA study accession number: PRJEB37062 and ENA sample accession number: ERS12561807 for biotransformation under anaerobic condition. The drug concentrations were measured over 9 timepoints collected between 0 and 24 hours of incubation by liquid-chromatography-coupled mass spectrometry (LC–MS); settings: 2 µM
[5] = The drug is tested on WLS-006 corresponding to human gut metagenome with ENA study accession number: PRJEB37062 and ENA sample accession number: ERS12561741 for biotransformation under anaerobic condition. The drug concentrations were measured over 9 timepoints collected between 0 and 24 hours of incubation by liquid-chromatography-coupled mass spectrometry (LC–MS); settings: 2 µM
[6] = human gut metagenome, 24 h, 2 µM; remark: listed apart in the source
[7] = human gut metagenome, 24 h, 2 µM; remark: listed apart in the source
[8] = The drug is tested on Z-028 corresponding to mouse gut metagenome with ENA study accession number: PRJEB37062 and ENA sample accession number: ERS12561827 for biotransformation under anaerobic condition. The drug concentrations were measured over 9 timepoints collected between 0 and 24 hours of incubation by liquid-chromatography-coupled mass spectrometry (LC–MS); settings: 2 µM
[9] = The drug is tested on WLS-240 corresponding to human gut metagenome with ENA study accession number: PRJEB37062 and ENA sample accession number: ERS12561773 for biotransformation under anaerobic condition. The drug concentrations were measured over 9 timepoints collected between 0 and 24 hours of incubation by liquid-chromatography-coupled mass spectrometry (LC–MS); settings: 2 µM
[10] = The drug is tested on Z-018 corresponding to pig gut metagenome with ENA study accession number: PRJEB37062 and ENA sample accession number: ERS12561817 for biotransformation under anaerobic condition. The drug concentrations were measured over 9 timepoints collected between 0 and 24 hours of incubation by liquid-chromatography-coupled mass spectrometry (LC–MS); settings: 2 µM
[11] = The drug is tested on WLS-170 corresponding to human gut metagenome with ENA study accession number: PRJEB37062 and ENA sample accession number: ERS12561762 for biotransformation under anaerobic condition. The drug concentrations were measured over 9 timepoints collected between 0 and 24 hours of incubation by liquid-chromatography-coupled mass spectrometry (LC–MS); settings: 2 µM
[12] = The drug is tested on Z-027 corresponding to metagenome with ENA study accession number: PRJEB37062 and ENA sample accession number: ERS12561826 for biotransformation under anaerobic condition. The drug concentrations were measured over 9 timepoints collected between 0 and 24 hours of incubation by liquid-chromatography-coupled mass spectrometry (LC–MS); settings: 2 µM
[13] = The drug is tested on Z-026 corresponding to metagenome with ENA study accession number: PRJEB37062 and ENA sample accession number: ERS12561825 for biotransformation under anaerobic condition. The drug concentrations were measured over 9 timepoints collected between 0 and 24 hours of incubation by liquid-chromatography-coupled mass spectrometry (LC–MS); settings: 2 µM
[14] = The drug is tested on Z-003 corresponding to pig gut metagenome with ENA study accession number: PRJEB37062 and ENA sample accession number: ERS12561803 for biotransformation under anaerobic condition. The drug concentrations were measured over 9 timepoints collected between 0 and 24 hours of incubation by liquid-chromatography-coupled mass spectrometry (LC–MS); settings: 2 µM
[15] = The drug is tested on WLS-077 corresponding to human gut metagenome with ENA study accession number: PRJEB37062 and ENA sample accession number: ERS12561750 for biotransformation under anaerobic condition. The drug concentrations were measured over 9 timepoints collected between 0 and 24 hours of incubation by liquid-chromatography-coupled mass spectrometry (LC–MS); settings: 2 µM
[16] = human gut metagenome, 24 h, 2 µM; remark: listed apart in the source
[17] = human gut metagenome, 24 h, 2 µM; remark: listed apart in the source
[18] = human gut metagenome, 24 h, 2 µM; remark: listed apart in the source
[19] = human gut metagenome, 24 h, 2 µM; remark: listed apart in the source
[20] = The drug is tested on WLS-098 corresponding to human gut metagenome with ENA study accession number: PRJEB37062 and ENA sample accession number: ERS12561754 for biotransformation under anaerobic condition. The drug concentrations were measured over 9 timepoints collected between 0 and 24 hours of incubation by liquid-chromatography-coupled mass spectrometry (LC–MS); settings: 2 µM
Note: call rule not given here.

## Br.CN(C)CCCC1(c2ccc(F)cc2)OCc2cc(C#N)ccc21 (stereo not given) [CITALOPRAM HYDROBROMIDE]
[1]
  Bacterial Biotransformation: Compound metabolized
[2]
  Bacterial Biotransformation: Compound NOT metabolized
[3]
  Bacterial Biotransformation: Compound NOT metabolized
[4]
  Bacterial Biotransformation: Compound NOT metabolized
[5]
  Bacterial Biotransformation: Compound metabolized
[6]
  Bacterial Biotransformation: Compound NOT metabolized
[7]
  Bacterial Biotransformation: Compound metabolized
[8]
  Bacterial Biotransformation: Compound NOT metabolized
[9]
  Bacterial Biotransformation: Compound metabolized
[10]
  Bacterial Biotransformation: Compound NOT metabolized
[11]
  Bacterial Biotransformation: Compound metabolized
[12]
  Bacterial Biotransformation: Compound NOT metabolized
[13]
  Bacterial Biotransformation: Compound NOT metabolized
[14]
  Bacterial Biotransformation: Compound NOT metabolized
[15]
  Bacterial Biotransformation: Compound NOT metabolized
[16]
  Bacterial Biotransformation: Compound NOT metabolized
[17]
  Bacterial Biotransformation: Compound metabolized
[18]
  Bacterial Biotransformation: Compound NOT metabolized
[19]
  Bacterial Biotransformation: Compound metabolized
[20]
  Bacterial Biotransformation: Compound metabolized

## CN(C)CCC=C1c2ccccc2C=Cc2ccccc21 [CYCLOBENZAPRINE]
[1]
  Bacterial Biotransformation: Compound metabolized
[2]
  Bacterial Biotransformation: Compound NOT metabolized
[3]
  Bacterial Biotransformation: Compound NOT metabolized
[4]
  Bacterial Biotransformation: Compound NOT metabolized
[5]
  Bacterial Biotransformation: Compound metabolized
[6]
  Bacterial Biotransformation: Compound metabolized
[7]
  Bacterial Biotransformation: Compound metabolized
[8]
  Bacterial Biotransformation: Compound NOT metabolized
[9]
  Bacterial Biotransformation: Compound metabolized
[10]
  Bacterial Biotransformation: Compound metabolized
[11]
  Bacterial Biotransformation: Compound metabolized
[12]
  Bacterial Biotransformation: Compound NOT metabolized
[13]
  Bacterial Biotransformation: Compound NOT metabolized
[14]
  Bacterial Biotransformation: Compound metabolized
[15]
  Bacterial Biotransformation: Compound NOT metabolized
[16]
  Bacterial Biotransformation: Compound NOT metabolized
[17]
  Bacterial Biotransformation: Compound NOT metabolized
[18]
  Bacterial Biotransformation: Compound metabolized
[19]
  Bacterial Biotransformation: Compound metabolized
[20]
  Bacterial Biotransformation: Compound metabolized

## O=C(Nc1ccccc1)OCC(CN1CCCCC1)OC(=O)Nc1ccccc1 (stereo not given) [DIPERODON]
[1]
  Bacterial Biotransformation: Compound metabolized
[2]
  Bacterial Biotransformation: Compound NOT metabolized
[3]
  Bacterial Biotransformation: Compound NOT metabolized
[4]
  Bacterial Biotransformation: Compound NOT metabolized
[5]
  Bacterial Biotransformation: Compound NOT metabolized
[6]
  Bacterial Biotransformation: Compound NOT metabolized
[7]
  Bacterial Biotransformation: Compound metabolized
[8]
  Bacterial Biotransformation: Compound NOT metabolized
[9]
  Bacterial Biotransformation: Compound metabolized
[10]
  Bacterial Biotransformation: Compound NOT metabolized
[11]
  Bacterial Biotransformation: Compound metabolized
[12]
  Bacterial Biotransformation: Compound NOT metabolized
[13]
  Bacterial Biotransformation: Compound NOT metabolized
[14]
  Bacterial Biotransformation: Compound metabolized
[15]
  Bacterial Biotransformation: Compound NOT metabolized
[16]
  Bacterial Biotransformation: Compound NOT metabolized
[17]
  Bacterial Biotransformation: Compound NOT metabolized
[18]
  Bacterial Biotransformation: Compound metabolized
[19]
  Bacterial Biotransformation: Compound metabolized
[20]
  Bacterial Biotransformation: Compound metabolized

## CC(C)N(CCC(C(N)=O)(c1ccccc1)c1ccccn1)C(C)C.O=P(O)(O)O (stereo not given) [DISOPYRAMIDE PHOSPHATE]
[1]
  Bacterial Biotransformation: Compound metabolized
[2]
  Bacterial Biotransformation: Compound NOT metabolized
[3]
  Bacterial Biotransformation: Compound NOT metabolized
[4]
  Bacterial Biotransformation: Compound NOT metabolized
[5]
  Bacterial Biotransformation: Compound metabolized
[6]
  Bacterial Biotransformation: Compound NOT metabolized
[7]
  Bacterial Biotransformation: Compound NOT metabolized
[8]
  Bacterial Biotransformation: Compound NOT metabolized
[9]
  Bacterial Biotransformation: Compound NOT metabolized
[10]
  Bacterial Biotransformation: Compound NOT metabolized
[11]
  Bacterial Biotransformation: Compound NOT metabolized
[12]
  Bacterial Biotransformation: Compound NOT metabolized
[13]
  Bacterial Biotransformation: Compound NOT metabolized
[14]
  Bacterial Biotransformation: Compound NOT metabolized
[15]
  Bacterial Biotransformation: Compound NOT metabolized
[16]
  Bacterial Biotransformation: Compound NOT metabolized
[17]
  Bacterial Biotransformation: Compound NOT metabolized
[18]
  Bacterial Biotransformation: Compound NOT metabolized
[19]
  Bacterial Biotransformation: Compound NOT metabolized
[20]
  Bacterial Biotransformation: Compound metabolized

## C[C@@H](CO)NC(=O)[C@@H]1C=C2c3cccc4[nH]cc(c34)C[C@H]2N(C)C1.O=C(O)/C=C\C(=O)O [ERGONOVINE MALEATE]
[1]
  Bacterial Biotransformation: Compound metabolized
[2]
  Bacterial Biotransformation: Compound NOT metabolized
[3]
  Bacterial Biotransformation: Compound NOT metabolized
[4]
  Bacterial Biotransformation: Compound NOT metabolized
[5]
  Bacterial Biotransformation: Compound metabolized
[6]
  Bacterial Biotransformation: Compound metabolized
[7]
  Bacterial Biotransformation: Compound metabolized
[8]
  Bacterial Biotransformation: Compound NOT metabolized
[9]
  Bacterial Biotransformation: Compound metabolized
[10]
  Bacterial Biotransformation: Compound metabolized
[11]
  Bacterial Biotransformation: Compound metabolized
[12]
  Bacterial Biotransformation: Compound NOT metabolized
[13]
  Bacterial Biotransformation: Compound NOT metabolized
[14]
  Bacterial Biotransformation: Compound NOT metabolized
[15]
  Bacterial Biotransformation: Compound metabolized
[16]
  Bacterial Biotransformation: Compound NOT metabolized
[17]
  Bacterial Biotransformation: Compound NOT metabolized
[18]
  Bacterial Biotransformation: Compound metabolized
[19]
  Bacterial Biotransformation: Compound metabolized
[20]
  Bacterial Biotransformation: Compound NOT metabolized
